Assay results taken from the NIST ThermoML archive (doi:10.1016/j.tca.2006.04.001).
Numbers after ± are expanded uncertainties.

Details: Liquid, Pycnometric method

CCCCCCCCCCCCCCCCCCC [nonadecane]
Details | specific volume [m3/kg]
305.45 K | 0.0013 ± 1.9e-05
307.55 K | 0.001303 ± 2e-05
309.55 K | 0.001304 ± 2e-05
311.65 K | 0.001304 ± 2e-05
313.65 K | 0.001307 ± 2e-05
315.75 K | 0.001309 ± 2e-05
317.75 K | 0.001311 ± 2e-05
319.85 K | 0.001313 ± 2e-05
321.95 K | 0.001316 ± 2e-05
323.95 K | 0.001319 ± 2e-05
326.05 K | 0.001322 ± 2e-05
328.05 K | 0.001321 ± 2e-05
330.15 K | 0.001324 ± 2e-05
332.25 K | 0.001327 ± 2e-05
334.25 K | 0.001329 ± 2e-05
336.35 K | 0.001331 ± 2e-05
338.35 K | 0.001335 ± 2e-05
340.45 K | 0.001337 ± 2e-05
342.55 K | 0.001339 ± 2e-05
344.55 K | 0.001338 ± 2e-05
346.65 K | 0.001344 ± 2e-05
348.65 K | 0.001345 ± 2e-05
350.75 K | 0.001346 ± 2e-05
352.85 K | 0.001348 ± 2e-05
354.85 K | 0.001353 ± 2e-05
356.95 K | 0.001355 ± 2e-05
358.95 K | 0.001357 ± 2e-05
361.05 K | 0.001359 ± 2e-05
363.15 K | 0.001362 ± 2.1e-05
365.15 K | 0.001365 ± 2.1e-05
367.25 K | 0.001368 ± 2.1e-05
369.25 K | 0.00137 ± 2.1e-05
371.35 K | 0.001373 ± 2.1e-05
373.45 K | 0.001374 ± 2.1e-05
375.45 K | 0.001376 ± 2.1e-05
377.55 K | 0.001379 ± 2.1e-05
379.55 K | 0.001382 ± 2.1e-05
381.65 K | 0.001385 ± 2.1e-05
383.75 K | 0.001389 ± 2.1e-05
385.75 K | 0.001391 ± 2.1e-05
387.85 K | 0.001394 ± 2.1e-05
389.85 K | 0.001396 ± 2.1e-05
391.95 K | 0.001401 ± 2.1e-05
393.95 K | 0.001404 ± 2.1e-05
396.05 K | 0.001405 ± 2.1e-05
398.15 K | 0.001405 ± 2.1e-05
400.15 K | 0.00141 ± 2.1e-05
402.25 K | 0.001412 ± 2.1e-05
404.25 K | 0.001415 ± 2.1e-05
406.35 K | 0.001418 ± 2.1e-05
408.45 K | 0.001422 ± 2.1e-05
410.45 K | 0.001426 ± 2.1e-05
412.55 K | 0.001429 ± 2.2e-05
414.55 K | 0.001434 ± 2.2e-05
416.65 K | 0.001436 ± 2.2e-05
418.75 K | 0.001439 ± 2.2e-05
420.75 K | 0.001439 ± 2.2e-05
422.85 K | 0.001442 ± 2.2e-05
424.85 K | 0.001447 ± 2.2e-05
426.95 K | 0.00145 ± 2.2e-05
429.05 K | 0.001452 ± 2.2e-05
431.05 K | 0.001456 ± 2.2e-05
433.15 K | 0.001457 ± 2.2e-05
435.15 K | 0.001461 ± 2.2e-05
437.25 K | 0.001464 ± 2.2e-05
439.35 K | 0.001466 ± 2.2e-05
441.35 K | 0.001469 ± 2.2e-05
443.45 K | 0.001475 ± 2.2e-05
445.45 K | 0.001479 ± 2.2e-05
447.55 K | 0.001481 ± 2.2e-05
449.65 K | 0.001485 ± 2.2e-05
451.65 K | 0.001485 ± 2.2e-05
453.75 K | 0.001492 ± 2.3e-05
455.75 K | 0.001495 ± 2.3e-05
457.85 K | 0.001498 ± 2.3e-05
459.95 K | 0.001504 ± 2.3e-05
461.95 K | 0.001506 ± 2.3e-05
464.05 K | 0.001508 ± 2.3e-05
466.05 K | 0.001514 ± 2.3e-05
468.15 K | 0.001514 ± 2.3e-05
470.25 K | 0.00152 ± 2.3e-05
472.25 K | 0.001523 ± 2.3e-05
474.35 K | 0.001527 ± 2.3e-05
476.35 K | 0.00153 ± 2.3e-05
478.45 K | 0.001533 ± 2.3e-05
480.45 K | 0.001536 ± 2.3e-05
482.55 K | 0.001543 ± 2.3e-05
484.65 K | 0.001546 ± 2.3e-05
486.65 K | 0.001549 ± 2.3e-05
488.75 K | 0.001549 ± 2.3e-05
490.75 K | 0.001557 ± 2.3e-05
492.85 K | 0.00156 ± 2.3e-05
494.95 K | 0.001563 ± 2.3e-05
496.95 K | 0.001566 ± 2.4e-05
499.05 K | 0.001569 ± 2.4e-05
501.05 K | 0.001575 ± 2.4e-05
503.15 K | 0.001578 ± 2.4e-05
505.25 K | 0.001582 ± 2.4e-05
507.25 K | 0.001586 ± 2.4e-05
509.35 K | 0.001592 ± 2.4e-05
511.35 K | 0.001594 ± 2.4e-05
513.45 K | 0.001599 ± 2.4e-05
515.55 K | 0.001604 ± 2.4e-05
517.55 K | 0.001609 ± 2.4e-05
519.65 K | 0.001609 ± 2.4e-05
521.65 K | 0.001615 ± 2.4e-05
523.75 K | 0.00162 ± 2.4e-05
525.85 K | 0.001625 ± 2.4e-05
531.35 K | 0.001634 ± 2.5e-05
533.25 K | 0.001639 ± 2.5e-05
535.25 K | 0.001641 ± 2.5e-05
537.15 K | 0.001646 ± 2.5e-05
539.15 K | 0.001649 ± 2.5e-05
541.05 K | 0.001653 ± 2.5e-05
543.05 K | 0.001659 ± 2.5e-05
544.95 K | 0.001663 ± 2.5e-05
546.85 K | 0.001667 ± 2.5e-05
548.85 K | 0.00167 ± 2.5e-05
550.75 K | 0.001676 ± 2.5e-05
552.75 K | 0.00168 ± 2.5e-05
554.65 K | 0.001683 ± 2.5e-05
556.65 K | 0.001687 ± 2.5e-05
558.55 K | 0.001692 ± 2.5e-05
560.45 K | 0.001697 ± 2.6e-05
562.45 K | 0.001702 ± 2.6e-05
564.35 K | 0.001707 ± 2.6e-05
566.35 K | 0.001711 ± 2.6e-05
568.25 K | 0.001717 ± 2.6e-05
570.25 K | 0.001722 ± 2.6e-05
572.15 K | 0.001725 ± 2.6e-05
574.05 K | 0.001732 ± 2.6e-05
576.05 K | 0.001737 ± 2.6e-05
